ChEMBL document CHEMBL1806452, “New salicylamide and sulfonamide derivatives of quinoxaline 1,4-di-N-oxide with antileishmanial and antimalarial activities” (Bioorg Med Chem Lett, 2011)

Columns and labels:
Plasmodium falciparum [1] = test: Ratio of chloroquine IC50 to compound IC50 for chloroquine-resistant Plasmodium falciparum FCR-3 infected in human erythrocytes; type: functional
[2] = Selectivity index, ratio of CC50 for mouse peritoneal macrophages to IC50 for axenic amastigotes of Leishmania amazonensis; type: functional
Leishmania amazonensis [3] = test: Leishmanicidal activity against axenic amastigotes of Leishmania amazonensis by MTT assay; type: functional, organism-based
Leishmania amazonensis [4] = test: Ratio of amphotericin B IC50 to compound IC50 for axenic amastigotes of Leishmania amazonensis; type: functional
Plasmodium falciparum [5] = test: Antiplasmodial activity against chloroquine-resistant Plasmodium falciparum FCR-3 infected in human erythrocytes assessed as inhibition of [3H]hypoxanthine uptake after 48 hrs; type: functional, organism-based
[6] = Cytotoxicity against mouse peritoneal macrophages after 48 hrs by trypan blue exclusion method; type: cell-based, Peritoneal macrophage cell

Structure (SMILES) | Ratio IC50 (Plasmodium falciparum [1]) | Ratio CC50/IC50 [2] | IC50 (Leishmania amazonensis [3]) | Ratio IC50 (Leishmania amazonensis [4]) | IC50 (Plasmodium falciparum [5]) | CC50 at 48 h [6]
Cc1ccc2c(c1)[n+]([O-])c(C#N)c(NS(=O)(=O)c1ccc3ccccc3c1)[n+]2[O-] | >82 | >15.1 | 16.3 µM | 81.5 | > 24.6 µM | > 246 µM
Cc1cc2c(cc1C)[n+]([O-])c(NS(=O)(=O)c1ccc3ccccc3c1)c(C#N)[n+]2[O-] | >79 |  | > 100 µM | >100 | > 23.8 µM | 
N#Cc1c(NS(=O)(=O)c2ccccc2[N+](=O)[O-])[n+]([O-])c2ccc(Cl)cc2[n+]1[O-] | 58 | 2.2 | 3.1 µM | 15.5 | 17.4 µM | 6.8 µM
N#Cc1c(NS(=O)(=O)c2ccc([N+](=O)[O-])cc2)[n+]([O-])c2ccc(Cl)cc2[n+]1[O-] | >79 | 3.8 | 2.1 µM | 10.5 | > 23.7 µM | 7.9 µM
N#Cc1c(NS(=O)(=O)c2ccc([N+](=O)[O-])cc2)[n+]([O-])c2cc(Cl)c(Cl)cc2[n+]1[O-] | 62 | 5.6 | 15.9 µM | 79.5 | 18.7 µM | 89.1 µM
N#Cc1c(NS(=O)(=O)c2ccc([N+](=O)[O-])cc2)[n+]([O-])c2ccccc2[n+]1[O-] | 67 |  | 86.3 µM | 430 | 20 µM | 
CC(=O)Oc1ccccc1C(=O)Nc1c(C#N)[n+]([O-])c2ccccc2[n+]1[O-] | 138 |  | 112 µM | 559 | 41.4 µM | 
CC(=O)Oc1ccccc1C(=O)Nc1c(C#N)[n+]([O-])c2cc(Cl)ccc2[n+]1[O-] | 36 |  | 33.6 µM | 168 | 10.8 µM | 
CC(=O)Oc1ccccc1C(=O)Nc1c(C#N)[n+]([O-])c2cc(C)ccc2[n+]1[O-] | 176 | 1.1 | 18.8 µM | 94 | 52.8 µM | 21.7 µM
COc1ccc2c(c1)[n+]([O-])c(C#N)c(NC(=O)c1ccccc1OC(C)=O)[n+]2[O-] | 90 |  | 42.4 µM | 212 | 27 µM | 
CC(=O)Oc1ccccc1C(=O)Nc1c(C#N)[n+]([O-])c2cc(F)c(F)cc2[n+]1[O-] | 120 | 0.7 | 14.8 µM | 74 | 36 µM | 10.5 µM
CC(=O)Oc1ccccc1C(=O)Nc1c(C#N)[n+]([O-])c2cc(C)c(C)cc2[n+]1[O-] | 198 | 0.7 | 17.6 µM | 88 | 59.4 µM | 12.5 µM
CC(=O)Oc1ccccc1C(=O)Nc1c(C#N)[n+]([O-])c2cc(F)ccc2[n+]1[O-] | 25 | 1.8 | 7.3 µM | 36.5 | 7.4 µM | 13.6 µM
N#Cc1c(NS(=O)(=O)c2ccc3ccccc3c2)[n+]([O-])c2ccc(Cl)cc2[n+]1[O-] | >78 | 4.4 | 20 µM | 100 | > 23.4 µM | 88.6 µM
C[C@@H]1[C@H](O)[C@@H](C)/C=C/C=C/C=C/C=C/C=C/C=C/C=C/[C@H](O[C@@H]2O[C@H](C)[C@@H](O)[C@H](N)[C@@H]2O)C[C@@H]2O[C@](O)(C[C@@H](O)C[C@@H](O)[C@H](O)CC[C@@H](O)C[C@@H](O)CC(=O)O[C@H]1C)C[C@H](O)[C@H]2C(=O)O [AMPHOTERICIN B] |  |  |  | 1 |  | 4.4 µM
CCN(CC)CCCC(C)Nc1ccnc2cc(Cl)ccc12 (stereo not drawn) [CHLOROQUINE] |  |  | 20 µM |  |  | 88.6 µM
